# Experimental data as given in ChEMBL document CHEMBL4354834 (J Med Chem, 2020).
# Assays:
# [1] = Clearance in rat at 0.70 mg/kg, iv or 1.40 mg/kg, po; assay type: ADME, organism-based; details: in vivo, 0.7 mg/kg
# [2] = Half life in rat at 0.70 mg/kg, iv or 1.40 mg/kg, po; assay type: ADME, organism-based; details: in vivo
# [3] = Volume of distribution at steady state in rat at 0.70 mg/kg, iv or 1.40 mg/kg, po; assay type: ADME, organism-based; details: in vivo, 0.7 mg/kg, read-out: Vdss
# [4] = Oral bioavailability in rat at 1.40 mg/kg; assay type: ADME, organism-based; details: in vivo, 1.4 mg/kg
# [5] = AUC in rat at 1.40 mg/kg, po; assay type: ADME, organism-based; details: in vivo, 1.4 mg/kg
# [6] = Protein binding in rat; assay type: ADME; details: plasma, read-out: PB (converted)
# [7] = Clearance in dog at 0.80 mg/kg, iv; assay type: ADME, organism-based, Canis lupus familiaris; details: in vivo, 0.8 mg/kg
# [8] = Half life in dog at 0.80 mg/kg, iv; assay type: ADME, organism-based, Canis lupus familiaris; details: in vivo, 0.8 mg/kg
# [9] = Volume of distribution at steady state in dog at 0.80 mg/kg, iv; assay type: ADME, organism-based, Canis lupus familiaris; details: in vivo, 0.8 mg/kg, read-out: Vdss
# [10] = Clearance in cynomolgus monkey at 0.80 mg/kg, iv or 1.58 mg/kg, po; assay type: ADME, organism-based, Macaca fascicularis; details: in vivo, 0.8 mg/kg
# [11] = Half life in cynomolgus monkey at 0.80 mg/kg, iv or 1.58 mg/kg, po; assay type: ADME, organism-based, Macaca fascicularis; details: in vivo
# [12] = Volume of distribution at steady state in cynomolgus monkey at 0.80 mg/kg, iv or 1.58 mg/kg, po; assay type: ADME, organism-based, Macaca fascicularis; details: in vivo, 0.8 mg/kg, read-out: Vdss
# [13] = Oral bioavailability in cynomolgus monkey at 1.58 mg/kg; assay type: ADME, organism-based, Macaca fascicularis; details: in vivo
# [14] = AUC in cynomolgus monkey at 1.58 mg/kg, po; assay type: ADME, organism-based, Macaca fascicularis; details: in vivo
# [15] = Protein binding in dog; assay type: ADME, Canis lupus familiaris; details: read-out: PB (converted)
# [16] = Protein binding in cynomolgus monkey; assay type: ADME, Macaca fascicularis; details: read-out: PB (converted)
# [17] = Clearance in rat at 0.55 mg/kg, iv or 1.10 mg/kg, po; assay type: ADME, organism-based; details: in vivo
# [18] = Half life in rat at 0.55 mg/kg, iv or 1.10 mg/kg, po; assay type: ADME, organism-based; details: in vivo
# [19] = Volume of distribution at steady state in rat at 0.55 mg/kg, iv or 1.10 mg/kg, po; assay type: ADME, organism-based; details: in vivo, read-out: Vdss
# [20] = Oral bioavailability in rat at 1.10 mg/kg; assay type: ADME, organism-based; details: in vivo, 1.1 mg/kg
# [21] = AUC in rat at 1.10 mg/kg, po; assay type: ADME, organism-based; details: in vivo, 1.1 mg/kg
# [22] = Clearance in dog at 0.40 mg/kg, iv or 0.62 mg/kg, po; assay type: ADME, organism-based, Canis lupus familiaris; details: in vivo, 0.4 mg/kg
# [23] = Half life in dog at 0.40 mg/kg, iv or 0.62 mg/kg, po; assay type: ADME, organism-based, Canis lupus familiaris; details: in vivo
# [24] = Volume of distribution at steady state in dog at 0.40 mg/kg, iv or 0.62 mg/kg, po; assay type: ADME, organism-based, Canis lupus familiaris; details: in vivo, 0.4 mg/kg, read-out: Vdss
# [25] = Oral bioavailability in dog at 0.62 mg/kg; assay type: ADME, organism-based, Canis lupus familiaris; details: in vivo
# [26] = AUC in dog at 0.62 mg/kg, po; assay type: ADME, organism-based, Canis lupus familiaris; details: in vivo
# [27] = Clearance in cynomolgus monkey at 0.71 mg/kg, iv or 1.52 mg/kg, po; assay type: ADME, organism-based, Macaca fascicularis; details: in vivo
# [28] = Half life in cynomolgus monkey at 0.71 mg/kg, iv or 1.52 mg/kg, po; assay type: ADME, organism-based, Macaca fascicularis; details: in vivo
# [29] = Volume of distribution at steady state in cynomolgus monkey at 0.71 mg/kg, iv or 1.52 mg/kg, po; assay type: ADME, organism-based, Macaca fascicularis; details: in vivo, read-out: Vdss
# [30] = Oral bioavailability in cynomolgus monkey at 1.52 mg/kg; assay type: ADME, organism-based, Macaca fascicularis; details: in vivo
# [31] = AUC in cynomolgus monkey at 1.52 mg/kg, po; assay type: ADME, organism-based, Macaca fascicularis; details: in vivo
# [32] = Metabolic stability in cynomolgus monkey liver microsomes assessed as half life; assay type: ADME, Macaca fascicularis, Microsome
# [33] = Metabolic stability in dog liver microsomes assessed as half life; assay type: ADME, Canis lupus familiaris, Microsome
# [34] = Metabolic stability in human liver microsomes assessed as half life; assay type: ADME, Microsome
# [35] = Permeability of the compound across apical side to basolateral side in human Caco2 cells; assay type: ADME, cell-based; details: Caco-2, read-out: permeability
# [36] = Permeability of the compound across basolateral side to apical side in human Caco2 cells; assay type: ADME, cell-based; details: Caco-2, read-out: permeability
# [37] = Metabolic stability in rat liver microsomes assessed as half life; assay type: ADME, Microsome
# [38] = target: T1, Coagulation factor VII (Homo sapiens, UniProt P08709); assay: Inhibition of activated human coagulation factor VII using H-(D)-Ile-Pro-Arg-pNA as substrate by spectrophotometry
# T1 sequence (P08709 whole entry): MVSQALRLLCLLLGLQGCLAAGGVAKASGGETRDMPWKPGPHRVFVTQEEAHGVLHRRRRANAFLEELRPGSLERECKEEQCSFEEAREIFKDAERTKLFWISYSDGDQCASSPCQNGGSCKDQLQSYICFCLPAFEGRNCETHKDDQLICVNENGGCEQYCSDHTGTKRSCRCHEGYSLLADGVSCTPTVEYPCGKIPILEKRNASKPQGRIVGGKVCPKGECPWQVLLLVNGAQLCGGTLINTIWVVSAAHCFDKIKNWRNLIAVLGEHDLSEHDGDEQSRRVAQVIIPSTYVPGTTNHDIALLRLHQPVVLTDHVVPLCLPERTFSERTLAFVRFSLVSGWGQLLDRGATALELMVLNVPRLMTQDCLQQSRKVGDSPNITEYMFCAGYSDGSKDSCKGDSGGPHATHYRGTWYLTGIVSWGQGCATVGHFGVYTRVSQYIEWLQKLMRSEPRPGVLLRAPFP
# [39] = target: Coagulation factor IX (Homo sapiens, UniProt P00740); assay: Inhibition of activated human coagulation factor IX using 7-amino-4-methylcoumarin as substrate by spectrofluorimetry
# [40] = target: Coagulation factor X (Homo sapiens, UniProt P00742); assay: Inhibition of activated human coagulation factor X using N-benzoyl-Ile-Glu-OH-OMe-Gly-Arg-pNA as substrate by spectrophotometry
# [41] = target: T2, Coagulation factor XII (Homo sapiens, UniProt P00748); assay: Inhibition of activated human coagulation factor XII using H-(D)-CHT-Gly-Arg-pNA as substrate by spectrophotometry
# T2 sequence (P00748 whole entry): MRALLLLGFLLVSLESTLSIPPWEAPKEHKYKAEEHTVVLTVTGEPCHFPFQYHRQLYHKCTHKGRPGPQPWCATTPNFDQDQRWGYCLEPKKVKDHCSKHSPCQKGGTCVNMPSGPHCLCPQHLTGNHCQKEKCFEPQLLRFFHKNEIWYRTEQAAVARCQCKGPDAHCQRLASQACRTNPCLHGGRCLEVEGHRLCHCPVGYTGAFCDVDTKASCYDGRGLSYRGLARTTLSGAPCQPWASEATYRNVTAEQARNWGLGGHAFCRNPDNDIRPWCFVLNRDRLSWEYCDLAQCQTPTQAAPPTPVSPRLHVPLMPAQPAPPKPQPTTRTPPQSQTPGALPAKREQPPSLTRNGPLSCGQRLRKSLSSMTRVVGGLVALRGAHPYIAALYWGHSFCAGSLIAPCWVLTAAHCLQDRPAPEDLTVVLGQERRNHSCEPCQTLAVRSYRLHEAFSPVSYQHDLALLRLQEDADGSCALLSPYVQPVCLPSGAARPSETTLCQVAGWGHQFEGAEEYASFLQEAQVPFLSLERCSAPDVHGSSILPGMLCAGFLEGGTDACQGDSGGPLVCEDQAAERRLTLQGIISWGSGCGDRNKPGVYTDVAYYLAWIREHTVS
# [42] = target: Prothrombin (Homo sapiens, UniProt P00734); assay: Inhibition of human alpha-thrombin using pyro-Glu-Pro-Arg-pNA as substrate by spectrophotometry
# [43] = target: Trypsin (Homo sapiens, UniProt P07477+P07478+P35030); assay: Inhibition of human trypsin using N-benzoyl-Ile-Glu-OH-OMe-Gly-Arg-pNA as substrate by spectrophotometry; assay type: protein assay
# [44] = target: Plasma kallikrein (Homo sapiens, UniProt P03952); assay: Inhibition of human kallikrein using H-(D)-Pro-Phe-Arg-pNA as substrate by spectrophotometry
# [45] = target: Vitamin K-dependent protein C (Homo sapiens, UniProt P04070); assay: Inhibition of activated human protein C using pyro-Glu-Pro-Arg-pNA as substrate by spectrophotometry
# [46] = target: Plasminogen (Homo sapiens, UniProt P00747); assay: Inhibition of human plasmin using H-(D)-Val-Leu-Lys-pNA as substrate by spectrophotometry
# [47] = target: Urokinase-type plasminogen activator (Homo sapiens, UniProt P00749); assay: Inhibition of activated human urokinase using pyro-Glu-Gly-Arg-pNA as substrate by spectrophotometry
# Chain of Plasminogen (P00747 97-580 limits assumed): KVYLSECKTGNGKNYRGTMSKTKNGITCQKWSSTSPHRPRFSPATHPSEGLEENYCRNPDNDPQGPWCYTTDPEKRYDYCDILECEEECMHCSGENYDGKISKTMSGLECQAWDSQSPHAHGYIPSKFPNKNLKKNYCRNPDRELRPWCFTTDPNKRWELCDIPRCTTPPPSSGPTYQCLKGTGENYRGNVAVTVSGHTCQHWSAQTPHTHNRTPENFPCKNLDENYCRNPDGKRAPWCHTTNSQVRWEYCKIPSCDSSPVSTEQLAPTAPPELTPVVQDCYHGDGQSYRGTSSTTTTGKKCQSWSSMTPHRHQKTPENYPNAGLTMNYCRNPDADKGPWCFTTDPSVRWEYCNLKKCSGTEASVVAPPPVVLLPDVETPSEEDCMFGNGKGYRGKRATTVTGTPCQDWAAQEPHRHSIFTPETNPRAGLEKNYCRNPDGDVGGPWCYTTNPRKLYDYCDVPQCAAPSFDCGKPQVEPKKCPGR
# Chain of Plasminogen (P00747 581-810 limits assumed): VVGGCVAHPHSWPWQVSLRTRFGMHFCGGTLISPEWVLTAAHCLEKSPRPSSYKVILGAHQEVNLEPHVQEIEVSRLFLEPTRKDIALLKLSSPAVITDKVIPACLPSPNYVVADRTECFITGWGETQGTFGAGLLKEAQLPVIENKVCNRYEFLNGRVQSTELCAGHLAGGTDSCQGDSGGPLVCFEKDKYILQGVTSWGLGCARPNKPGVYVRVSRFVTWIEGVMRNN
# Chain of Plasma kallikrein (P03952 20-390 limits assumed): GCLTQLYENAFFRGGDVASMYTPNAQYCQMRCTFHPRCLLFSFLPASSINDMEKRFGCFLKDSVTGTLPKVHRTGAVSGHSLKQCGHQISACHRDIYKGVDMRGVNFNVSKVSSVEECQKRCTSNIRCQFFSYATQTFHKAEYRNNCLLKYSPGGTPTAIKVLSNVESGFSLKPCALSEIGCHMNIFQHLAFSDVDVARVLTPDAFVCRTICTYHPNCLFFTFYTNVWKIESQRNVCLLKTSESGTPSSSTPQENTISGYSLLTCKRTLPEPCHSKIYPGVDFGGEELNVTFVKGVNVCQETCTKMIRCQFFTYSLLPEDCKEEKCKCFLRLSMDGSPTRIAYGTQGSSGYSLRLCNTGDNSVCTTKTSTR
# Chain of Plasma kallikrein (P03952 391-638 limits assumed): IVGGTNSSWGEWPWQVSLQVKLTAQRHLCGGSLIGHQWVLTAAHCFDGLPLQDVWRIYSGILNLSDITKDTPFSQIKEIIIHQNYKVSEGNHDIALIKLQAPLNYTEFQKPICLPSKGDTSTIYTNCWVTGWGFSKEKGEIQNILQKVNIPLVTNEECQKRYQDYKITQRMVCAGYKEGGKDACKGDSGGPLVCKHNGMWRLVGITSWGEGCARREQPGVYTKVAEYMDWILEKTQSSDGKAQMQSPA
# Chain of Vitamin K-dependent protein C (P04070 43-197 limits assumed): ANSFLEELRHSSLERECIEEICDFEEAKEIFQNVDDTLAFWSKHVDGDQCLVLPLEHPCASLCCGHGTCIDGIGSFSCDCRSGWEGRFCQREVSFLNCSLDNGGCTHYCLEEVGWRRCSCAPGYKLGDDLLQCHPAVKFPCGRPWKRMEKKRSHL
# Chain of Vitamin K-dependent protein C (P04070 212-461 limits assumed): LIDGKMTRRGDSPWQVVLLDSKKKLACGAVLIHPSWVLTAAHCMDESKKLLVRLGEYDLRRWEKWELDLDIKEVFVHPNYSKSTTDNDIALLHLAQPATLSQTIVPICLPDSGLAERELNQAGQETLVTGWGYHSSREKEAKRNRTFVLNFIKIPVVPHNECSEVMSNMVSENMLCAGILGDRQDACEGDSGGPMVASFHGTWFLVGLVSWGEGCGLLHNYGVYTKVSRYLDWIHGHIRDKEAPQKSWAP
# Chain of Coagulation factor IX (P00740 47-191 limits assumed): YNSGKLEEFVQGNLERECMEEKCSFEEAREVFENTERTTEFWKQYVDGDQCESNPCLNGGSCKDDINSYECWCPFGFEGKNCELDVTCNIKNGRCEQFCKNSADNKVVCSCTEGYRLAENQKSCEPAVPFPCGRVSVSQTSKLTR
# Chain of Coagulation factor IX (P00740 227-461 limits assumed): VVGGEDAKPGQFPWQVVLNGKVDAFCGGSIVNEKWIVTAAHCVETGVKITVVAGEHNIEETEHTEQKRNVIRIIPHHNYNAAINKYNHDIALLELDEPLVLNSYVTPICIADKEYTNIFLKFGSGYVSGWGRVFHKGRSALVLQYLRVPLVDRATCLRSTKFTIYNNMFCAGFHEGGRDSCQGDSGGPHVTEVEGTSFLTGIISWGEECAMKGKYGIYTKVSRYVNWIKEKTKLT
# Chain of Coagulation factor X (P00742 41-179 limits assumed): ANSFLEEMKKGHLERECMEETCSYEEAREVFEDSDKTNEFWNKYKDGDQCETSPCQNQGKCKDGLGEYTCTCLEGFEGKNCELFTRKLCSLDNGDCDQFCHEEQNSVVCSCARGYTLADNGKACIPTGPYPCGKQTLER
# Chain of Coagulation factor X (P00742 235-488 limits assumed): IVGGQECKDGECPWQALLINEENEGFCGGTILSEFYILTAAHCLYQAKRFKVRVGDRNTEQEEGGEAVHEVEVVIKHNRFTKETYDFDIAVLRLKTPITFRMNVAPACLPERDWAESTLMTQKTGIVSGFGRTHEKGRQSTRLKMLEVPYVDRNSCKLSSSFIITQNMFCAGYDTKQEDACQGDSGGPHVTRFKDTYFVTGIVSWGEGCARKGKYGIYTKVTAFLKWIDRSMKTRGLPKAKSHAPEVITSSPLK
smiles,measurement,setting,value
COC(=O)Nc1ccc2c(c1)NC(=O)[C@H](C)CCC[C@H](NC(=O)c1ncn(-c3cccc(Cl)c3F)c1C)c1cc-2ccn1.O=C(O)C(F)(F)F.O=C(O)C(F)(F)F,clearance,[1],6 to 29 mL/min/kg
same,half-life,[2],1 to 1.4 h
same,Vd,[3],0.5 to 2 L/kg
same,bioavailability,[4],7 to 25%
same,AUC,[5],0.068 to 1.23 µM·h
same,fraction unbound,[6],0.026
same,clearance,[7],15.6 mL/min/kg
same,half-life,[8],5 h
same,Vd,[9],6 L/kg
same,clearance,[10],14.5 mL/min/kg
same,half-life,[11],3.7 h
same,Vd,[12],3.2 L/kg
same,bioavailability,[13],19%
same,AUC,[14],0.509 µM·h
same,fraction unbound,[15],0.043
same,fraction unbound,[16],0.042
COC(=O)Nc1ccc2c(c1)NC(=O)[C@H](C)CCC[C@H](NC(=O)c1nnn(-c3cccc(Cl)c3F)c1C)c1cc-2ccn1.O=C(O)C(F)(F)F,clearance,[17],9 to 21 mL/min/kg
same,half-life,[18],2.2 to 4.2 h
same,Vd,[19],2.1 to 3.5 L/kg
same,bioavailability,[20],13 to 42%
same,AUC,[21],0.213 to 1.15 µM·h
same,fraction unbound,[6],0.052
same,clearance,[22],5.4 mL/min/kg
same,half-life,[23],4.8 h
same,Vd,[24],2.4 L/kg
same,bioavailability,[25],34%
same,AUC,[26],0.922 µM·h
same,clearance,[27],9.9 mL/min/kg
same,half-life,[28],4 h
same,Vd,[29],2.9 L/kg
same,bioavailability,[30],15%
same,AUC,[31],0.584 µM·h
same,fraction unbound,[15],0.038
same,fraction unbound,[16],0.055
COC(=O)Nc1ccc2c(c1)NC(=O)[C@H](C)CCC[C@H](NC(=O)c1ncn(-c3cccc(Cl)c3F)c1C)c1cc-2ccn1.Cl.Cl,half-life,[32],0.8 h
same,half-life,[33],1.22 h
same,half-life,[34],0.917 h
same,Papp A→B,[35],< 1.5 ×10⁻⁶ cm/s
same,Papp B→A,[36],36.7 ×10⁻⁶ cm/s
same,half-life,[37],1.13 h
same,Ki,[38],> 13.3 µM
same,Ki,[39],> 27.1 µM
same,Ki,[40],> 13.3 µM
same,Ki,[41],2.53 µM
same,Ki,[42],> 11.5 µM
same,Ki,[43],> 10 µM
same,Ki,[44],0.0063 µM
same,Ki,[45],> 21.5 µM
same,Ki,[46],> 15 µM
same,Ki,[47],> 15.1 µM
